The NIST ThermoML archive (doi:10.1021/je500804j)
± gives the expanded uncertainty stated by the source.

Assay: mn = molality of the nth substance listed, in mol/kg
Conditions: 101 kPa, Liquid, Alternating current cell with electrodes

CCCCCCCC[N+](C)(C)CCCCCC[N+](C)(C)CCCCCCCC.[Br-].[Br-] + O
Conditions | electrical conductivity [S/m]
293.15 K, m1 = 0.1245 | 0.9968 ± 0.004
298.15 K, m1 = 0.00419 | 0.07905 ± 0.00045
298.15 K, m1 = 0.00827 | 0.1464 ± 0.00068
298.15 K, m1 = 0.01224 | 0.2076 ± 0.0009
298.15 K, m1 = 0.0161 | 0.2647 ± 0.0011
298.15 K, m1 = 0.01987 | 0.3161 ± 0.0013
298.15 K, m1 = 0.02353 | 0.3644 ± 0.0015
298.15 K, m1 = 0.02711 | 0.4098 ± 0.0017
298.15 K, m1 = 0.03059 | 0.4515 ± 0.0018
298.15 K, m1 = 0.03399 | 0.4914 ± 0.002
298.15 K, m1 = 0.0373 | 0.5292 ± 0.0022
298.15 K, m1 = 0.04053 | 0.5645 ± 0.0023
298.15 K, m1 = 0.04369 | 0.5979 ± 0.0024
298.15 K, m1 = 0.04677 | 0.6299 ± 0.0026
298.15 K, m1 = 0.04978 | 0.6602 ± 0.0027
298.15 K, m1 = 0.05272 | 0.6887 ± 0.0028
298.15 K, m1 = 0.05559 | 0.7156 ± 0.0029
298.15 K, m1 = 0.0584 | 0.7419 ± 0.003
298.15 K, m1 = 0.06114 | 0.7666 ± 0.0031
298.15 K, m1 = 0.06383 | 0.7898 ± 0.0032
298.15 K, m1 = 0.06645 | 0.812 ± 0.0033
298.15 K, m1 = 0.06902 | 0.833 ± 0.0034
298.15 K, m1 = 0.07154 | 0.8526 ± 0.0034
298.15 K, m1 = 0.074 | 0.8713 ± 0.0035
298.15 K, m1 = 0.07641 | 0.8887 ± 0.0036
298.15 K, m1 = 0.07877 | 0.9051 ± 0.0037
298.15 K, m1 = 0.08108 | 0.9203 ± 0.0037
298.15 K, m1 = 0.08334 | 0.9348 ± 0.0038
298.15 K, m1 = 0.08556 | 0.9485 ± 0.0038
298.15 K, m1 = 0.08773 | 0.9616 ± 0.0039
298.15 K, m1 = 0.08987 | 0.9739 ± 0.0039
298.15 K, m1 = 0.09196 | 0.9852 ± 0.004
298.15 K, m1 = 0.09401 | 0.9959 ± 0.004
298.15 K, m1 = 0.09602 | 1.006 ± 0.0041
298.15 K, m1 = 0.09799 | 1.016 ± 0.0041
298.15 K, m1 = 0.09992 | 1.025 ± 0.0041
298.15 K, m1 = 0.1018 | 1.033 ± 0.0042
298.15 K, m1 = 0.1037 | 1.042 ± 0.0042
298.15 K, m1 = 0.1055 | 1.05 ± 0.0042
298.15 K, m1 = 0.1073 | 1.058 ± 0.0043
298.15 K, m1 = 0.1091 | 1.066 ± 0.0043
298.15 K, m1 = 0.1108 | 1.073 ± 0.0043
298.15 K, m1 = 0.1125 | 1.08 ± 0.0044
298.15 K, m1 = 0.1142 | 1.087 ± 0.0044
298.15 K, m1 = 0.1158 | 1.094 ± 0.0044
298.15 K, m1 = 0.1174 | 1.1 ± 0.0044
298.15 K, m1 = 0.119 | 1.107 ± 0.0045
298.15 K, m1 = 0.1206 | 1.112 ± 0.0045
298.15 K, m1 = 0.1221 | 1.118 ± 0.0045
298.15 K, m1 = 0.1236 | 1.124 ± 0.0045
298.15 K, m1 = 0.1251 | 1.13 ± 0.0046
303.15 K, m1 = 0.00379 | 0.0878 ± 0.00042
303.15 K, m1 = 0.00748 | 0.1271 ± 0.0006
303.15 K, m1 = 0.01108 | 0.1968 ± 0.00088
303.15 K, m1 = 0.01459 | 0.2594 ± 0.0011
303.15 K, m1 = 0.01801 | 0.3174 ± 0.0013
303.15 K, m1 = 0.02135 | 0.3714 ± 0.0015
303.15 K, m1 = 0.02461 | 0.4209 ± 0.0017
303.15 K, m1 = 0.02779 | 0.4681 ± 0.0019
303.15 K, m1 = 0.0309 | 0.5124 ± 0.0021
303.15 K, m1 = 0.03394 | 0.5542 ± 0.0022
303.15 K, m1 = 0.03691 | 0.5939 ± 0.0024
303.15 K, m1 = 0.03981 | 0.6314 ± 0.0026
303.15 K, m1 = 0.04264 | 0.6668 ± 0.0027
303.15 K, m1 = 0.04542 | 0.7005 ± 0.0028
303.15 K, m1 = 0.04813 | 0.7326 ± 0.003
303.15 K, m1 = 0.05078 | 0.7638 ± 0.0031
303.15 K, m1 = 0.05338 | 0.7917 ± 0.0032
303.15 K, m1 = 0.05592 | 0.8194 ± 0.0033
303.15 K, m1 = 0.05841 | 0.8457 ± 0.0034
303.15 K, m1 = 0.06085 | 0.8704 ± 0.0035
303.15 K, m1 = 0.06324 | 0.8926 ± 0.0036
303.15 K, m1 = 0.06558 | 0.9126 ± 0.0037
303.15 K, m1 = 0.06787 | 0.9342 ± 0.0038
303.15 K, m1 = 0.07011 | 0.9547 ± 0.0039
303.15 K, m1 = 0.07232 | 0.9738 ± 0.0039
303.15 K, m1 = 0.07448 | 0.9921 ± 0.004
303.15 K, m1 = 0.07659 | 1.01 ± 0.0041
303.15 K, m1 = 0.07867 | 1.026 ± 0.0041
303.15 K, m1 = 0.08071 | 1.04 ± 0.0042
303.15 K, m1 = 0.08271 | 1.055 ± 0.0043
303.15 K, m1 = 0.08467 | 1.069 ± 0.0043
303.15 K, m1 = 0.0866 | 1.082 ± 0.0044
303.15 K, m1 = 0.08849 | 1.094 ± 0.0044
303.15 K, m1 = 0.09034 | 1.107 ± 0.0045
303.15 K, m1 = 0.09217 | 1.118 ± 0.0045
303.15 K, m1 = 0.09396 | 1.129 ± 0.0046
303.15 K, m1 = 0.09572 | 1.139 ± 0.0046
303.15 K, m1 = 0.09745 | 1.148 ± 0.0046
303.15 K, m1 = 0.09915 | 1.158 ± 0.0047
303.15 K, m1 = 0.1008 | 1.168 ± 0.0047
303.15 K, m1 = 0.1025 | 1.175 ± 0.0047
303.15 K, m1 = 0.1041 | 1.183 ± 0.0048
303.15 K, m1 = 0.1057 | 1.191 ± 0.0048
303.15 K, m1 = 0.1072 | 1.198 ± 0.0048
303.15 K, m1 = 0.1087 | 1.206 ± 0.0049
303.15 K, m1 = 0.1103 | 1.215 ± 0.0049
303.15 K, m1 = 0.1118 | 1.22 ± 0.0049
303.15 K, m1 = 0.1132 | 1.228 ± 0.005
